Source: patent US8058243B2, “Method for treating a brain cancer with ifenprodil” (HSC Research and Development Limited Partnership, priority 2006, dated 2011)
Counter-ions that a name gives are not always drawn. Like-named read-outs stand apart in the source and are kept apart here.

Test system: murine neural precursor cells (neurosphere cultures)
Assay: HTS of LOPAC library against secondary neurosphere cultures, MTT proliferation assay at 3 μM, day 7 (z score, P value)
Type: cell-based, mouse
[1] = yes/no: significantly inhibited neurosphere proliferation (P<0.01) in the primary screen
[2] = LOPAC library screen, 3 μM, MTT, secondary neurosphere cultures, day 7
[3] = primary LOPAC screen, 3 μM, MTT, neurosphere proliferation
[4] = yes/no: significantly inhibited neurosphere proliferation in the primary screen
[5] = LOPAC primary screen, neurosphere MTT proliferation, 3 μM, day 7
[6] = LOPAC library screen, 3 μM, MTT, neurosphere cultures
[7] = LOPAC library screen at 3 μM, secondary neurosphere cultures, MTT
[8] = yes/no: significantly inhibited neurosphere proliferation in primary screen

Structure (SMILES)	Z Score [2]	Z score [3]	Activity [4]	Z score [5]	Activity [8]	Z Score	also measured
CN1CCN(CCCN2c3ccccc3Sc3ccc(C(F)(F)F)cc32)CC1 [Trifluoperazine dihydrochloride]	–	–	–	–	–	–	Z Score (168 h, 3 µM): −9.305; Z score (168 h, 3 µM): −9.305; Activity [1]: yes
O=C(CCCN1CCC(O)(c2cccc(C(F)(F)F)c2)CC1)c1ccc(F)cc1 [Trifluperidol hydrochloride]	−1.621	−1.621	no	–	–	–	–
CN(C)CCCN1c2ccccc2Sc2ccc(C(F)(F)F)cc21 [Triflupromazine hydrochloride]	−1.82	–	–	−1.820	–	–	Activity [1]: no
Cl.OC(CCN1CCCCC1)(c1ccccc1)C1CCCCC1 (stereo not drawn) [Trihexylphenidyl hydrochloride]	–	1.215	no	–	–	–	–
OC(CCN1CCCCC1)(c1ccccc1)C1CCCCC1 (stereo not drawn) [Trihexyphenidyl hydrochloride]	–	–	–	–	–	–	Z Score [6]: 1.215
COc1cc(Cc2cnc(N)nc2N)cc(OC)c1OC [Trimethoprim]	−1.23	−1.230	no	–	–	–	–
CC(CN(C)C)CN1c2ccccc2CCc2ccccc21 (stereo not drawn) [Trimipramine maleate]	–	0.568	no	–	–	–	Z Score [6]: 0.5677
Cc1ccc(/C(=C\CN2CCCC2)c2ccccn2)cc1 [Triprolidine hydrochloride]	–	–	–	−0.406	no	–	Z Score [7]: −0.4061
Cl.NCCc1c[nH]c2ccccc12 [Tryptamine hydrochloride]	–	–	–	1.245	no	1.245	–
CC(C)(C)NCC(O)c1ccccc1Cl (stereo not drawn) [Tulobuterol hydrochloride]	−1.767	–	–	−1.767	no	–	–
N#CC(C#N)=Cc1ccc(O)c(O)c1 [Tyrphostin 23]	–	–	–	−0.840	no	−0.8396	–
N#CC(C#N)=Cc1cc(O)c(O)c(O)c1 [Tyrphostin 25]	–	–	–	−0.259	no	−0.2591	–
N#C/C(=C\c1ccc(O)c(O)c1)C(N)=S [Tyrphostin 47]	–	0.178	no	–	–	0.1775	–
N#CC(C#N)=C(N)/C(C#N)=C/c1cc(O)c(O)c(O)c1 [Tyrphostin 51]	–	−0.918	no	–	–	−0.9177	–
CC(C)(C)c1cc(C=C(C#N)C#N)cc(C(C)(C)C)c1O [Tyrphostin A9]	−1.746	−1.746	no	–	–	–	–
COc1cc(C=C(C#N)C#N)cc(O)c1O [Tyrphostin AG 34]	−2.319	–	–	−2.319	no	–	–
N#CC(C#N)=C(N)/C(C#N)=C/c1ccc(O)cc1 [Tyrphostin AG 112]	–	–	–	0.333	no	–	Z Score [6]: 0.3333
N#CC(C#N)=Cc1ccc([N+](=O)[O-])c(O)c1 [Tyrphostin AG 126]	–	−0.410	no	–	–	–	Z Score [7]: −0.4102
N#C/C(=C\c1ccc(O)c(O)c1)C(=O)NCc1ccccc1 [Tyrphostin AG 490]	–	1.802	no	–	–	–	Z Score (LOPAC library screen at 3 μM, MTT, secondary neurosphere cultures, screened in singlets): 1.802
N#C/C(=C\c1ccc(O)c(O)c1)C(=O)Nc1ccccc1 [Tyrphostin AG 494]	–	−2.275	no	–	–	−2.275	–
C[C@@H](NC(=O)/C(C#N)=C/c1ccc(O)c(O)c1)c1ccccc1 [Tyrphostin AG 527]	−1.607	−1.607	no	–	–	–	–
N#C/C(=C\c1ccc(O)c(O)c1)C(=O)N1CCc2ccccc21 [Tyrphostin AG 528]	–	−0.148	no	–	–	–	Z Score [7]: −0.1481
N#C/C(=C\c1ccc(O)c(O)c1)C(=O)NCCCNC(=O)/C(C#N)=C/c1ccc(O)c(O)c1 [Tyrphostin AG 537]	–	−1.249	no	–	–	−1.249	–
